Test results published in patent publication US6930075B1, “Fatty acid-based herbicidal composition” (priority 1990, dated 2005).

What was measured:
Assay in all cases: Greenhouse post-emergence spray, plant damage rating
Assay type in all cases: in vivo
Avena sativa (oats) = settings: A. sativa, alone and combined
Description: (§1) Three species of weed, used in each test: Hypochoeris radicata (false dandelion), Sinapis, arvensis (wild mustard), and Avena sativa (oats), were grown in a greenhouse facility in 5.5 cm square pots using a potting soil mix comprising peat, vermiculite, sand, and 4-10-10 fertilizer. Water-soluble 20-20-20 fertilizer was used as a supplement for the plants as required. The plants were selected for use based on uniformity and quality and were potted separately. One plant per pot each of H. radicata (6–10 leaves) and S. arvensis (4–6 leaves) were used. Six to eight plants of A. sativa (2–4 leaves) were used per pot. After spraying with a herbicidal composition (as described below) the pots were arranged in a randomized complete block design in sub-irrigated watering trays. Six to ten replicates (pots) were used per treatment.
(§2) Herbicidal treatments were applied using a spray chamber fitted with a TeeJet 8006E flat fan nozzle (available from Spraying Systems Co., Wheaton, Ill.), calibrated to spray at a volume of 60 gpa at 40 psi. Treatment solutions were freshly prepared for each experiment. Plant damage was assessed at 10 to 14 days after treatment using a pre-transformed 0–10 rating scale (0 representing no damage, 10 representing plant death) in accordance with the procedure outlined in Statistical Methods in Agricultural Research, Little, T. M. et al, J. Wiley and Sons, 1975, pp. 119–120, 218.

[1] = system: Hypochoeris radicata (false dandelion); settings: H. radicata, alone and combined
Description: as §1, §2

[2] = system: Sinapis arvensis (wild mustard); settings: S. arvensis, alone and combined
Description: as §1, §2

[3] = Table 2 set 1: Round-Up 0.1%, Sodium pelargonate 0.1%
[4] = Table 2 set 2: Round-Up 0.1%, Sodium pelargonate 0.1% (so in the source)
[5] = Table 2 set 3: Round-Up 0.1%, Sodium pelargonate 0.1% (so in the source)

Measured: Phytotoxicity (%) Observed

CCCCCCCCC(=O)[O-].[Na+] [Sodium pelargonate]
0%: Avena sativa (oats); [3] | Avena sativa (oats); [4] | [1]; [3] | [1]; [4] | [1]; [5] | [2]; [3] | [2]; [4] | [2]; [5]
1%: Avena sativa (oats); [5]
